Data from patent publication US5362634A, “Process for producing A83543 compounds” (DowElanco, priority 1991, dated 1994).

Tests used:
larval blow fly = assay: Insecticidal assay in blood of sheep challenged with Haemonchus contortus, larval blow fly; assay type: in vivo
Procedure: Blood is drawn from the guinea pigs at 30 minutes except as noted, and the samples of blood are centrifuged. Dental wicks are saturated with the blood serum, and then exposed in Petri dishes to adult stable flies; blow fly larvae are exposed in test tubes. After 24 and 48 hours, the insects are examined, and the number of dead are counted. The results of the tests are recorded as the percent of the insects which are killed.
Tests are carried out in sheep using the test method described supra in the Guinea Pig Test description. […]
^b Amount (mg/kg) times number of doses administered
^c Times postadministration at which blood is drawn

Haemonchus contortus = assay: In vitro test against sheep intestinal nematode; details: read-out: worms killed
Description: In in vitro tests against the sheep intestinal nematode Haemonchus contortus, A83543A killed 30% of the worms at a concentration of 100 ppm.

SMILES: CC[C@H]1CCC[C@H](O[C@H]2CC[C@H](N(C)C)[C@@H](C)O2)[C@@H](C)C(=O)C2=C[C@@H]3[C@@H](C=C[C@@H]4C[C@@H](O[C@@H]5O[C@@H](C)[C@H](OC)[C@@H](OC)[C@H]5OC)C[C@@H]34)[C@@H]2CC(=O)O1 [A83543A]
- Percent Insecticide Mortality (larval blow fly; 1 × 1 mg/kg IV, Day 2, L, 48-hour exposure): 0%
- Percent Insecticide Mortality (larval blow fly; 1 × 1 mg/kg IV, Day 3, L, 24-hour exposure): 0%
- Percent Insecticide Mortality (larval blow fly; 1 × 1 mg/kg IV, Day 3, L, 48-hour exposure): 0%
- Percent Insecticide Mortality (larval blow fly; 1 × 1 mg/kg IV, Day 4, L, 24-hour exposure): 0%
- Percent Insecticide Mortality (larval blow fly; 1 × 1 mg/kg IV, Day 4, L, 48-hour exposure): 0%
- Percent Insecticide Mortality (larval blow fly; 1 × 1 mg/kg IV, Day 5, L, 24-hour exposure): 0%
- Percent Insecticide Mortality (larval blow fly; 1 × 1 mg/kg IV, Day 5, L, 48-hour exposure): 0%
- Percent Insecticide Mortality (larval blow fly; 25 × 2 mg/kg IR, 35 min, L, 24-hour exposure): 0%
- Percent Insecticide Mortality (larval blow fly; 25 × 2 mg/kg IR, 35 min, L, 48-hour exposure): 0%
- Percent Insecticide Mortality (larval blow fly; 25 × 2 mg/kg IR, 5 hr, L, 24-hour exposure): 25%
- Percent Insecticide Mortality (larval blow fly; 25 × 2 mg/kg IR, 5 hr, L, 48-hour exposure): 50%
- Percent Insecticide Mortality (larval blow fly; 25 × 2 mg/kg IR, Day 0, L, 24-hour exposure, 0 min): 0%
- Percent Insecticide Mortality (larval blow fly; 25 × 2 mg/kg IR, Day 0, L, 48-hour exposure): 0%
- Percent Insecticide Mortality (larval blow fly; 25 × 2 mg/kg IR, Day 1, L, 24-hour exposure): 100%
- Percent Insecticide Mortality (larval blow fly; 25 × 2 mg/kg IR, Day 1, L, 48-hour exposure): 100%
- Percent Insecticide Mortality (larval blow fly; 25 × 2 mg/kg IR, Day 2, L, 24-hour exposure): 90%
- Percent Insecticide Mortality (larval blow fly; 25 × 2 mg/kg IR, Day 2, L, 48-hour exposure): 100%
- Percent Insecticide Mortality (larval blow fly; 25 × 2 mg/kg IR, Day 3, L, 24-hour exposure): 90%
- Percent Insecticide Mortality (larval blow fly; 25 × 2 mg/kg IR, Day 3, L, 48-hour exposure): 100%
- Percent Insecticide Mortality (larval blow fly; 25 × 2 mg/kg IR, Day 4, L, 24-hour exposure): 60%
- Percent Insecticide Mortality (larval blow fly; 25 × 2 mg/kg IR, Day 4, L, 48-hour exposure): 90%
- Percent Insecticide Mortality (larval blow fly; 25 × 2 mg/kg IR, Day 5, L, 24-hour exposure): 50%
- Percent Insecticide Mortality (larval blow fly; 25 × 2 mg/kg IR, Day 5, L, 48-hour exposure): 75%
- Percent Insecticide Mortality (larval blow fly; 50 × 1 mg/kg IP, 35 min, L, 24-hour exposure): 0%
- Percent Insecticide Mortality (larval blow fly; 50 × 1 mg/kg IP, 35 min, L, 48-hour exposure): 10%
- Percent Insecticide Mortality (larval blow fly; 50 × 1 mg/kg IP, 5 hr, L, 24-hour exposure): 10%
- Percent Insecticide Mortality (larval blow fly; 50 × 1 mg/kg IP, 5 hr, L, 48-hour exposure): 10%
- Percent Insecticide Mortality (larval blow fly; 50 × 1 mg/kg IP, Day 0, L, 24-hour exposure, 0 min): 0%
- Percent Insecticide Mortality (larval blow fly; 50 × 1 mg/kg IP, Day 0, L, 48-hour exposure): 0%
- Percent Insecticide Mortality (larval blow fly; 50 × 1 mg/kg IP, Day 1, L, 24-hour exposure): 10%
- Percent Insecticide Mortality (larval blow fly; 50 × 1 mg/kg IP, Day 1, L, 48-hour exposure): 10%
- Percent Insecticide Mortality (larval blow fly; 50 × 1 mg/kg IP, Day 2, L, 24-hour exposure, 2880 min): 20%
- Percent Insecticide Mortality (larval blow fly; 50 × 1 mg/kg IP, Day 2, L, 48-hour exposure): 20%
- Percent Insecticide Mortality (larval blow fly; 50 × 1 mg/kg IP, Day 3, L, 24-hour exposure, 4320 min): 20%
- Percent Insecticide Mortality (larval blow fly; 50 × 1 mg/kg IP, Day 3, L, 48-hour exposure): 20%
- Percent Insecticide Mortality (larval blow fly; 50 × 1 mg/kg IP, Day 4, L, 24-hour exposure, 5760 min): 10%
- Percent Insecticide Mortality (larval blow fly; 50 × 1 mg/kg IP, Day 4, L, 48-hour exposure): 20%
- Percent Insecticide Mortality (larval blow fly; 50 × 1 mg/kg IP, Day 5, L, 24-hour exposure, 7200 min): 10%
- Percent Insecticide Mortality (larval blow fly; 50 × 1 mg/kg IP, Day 5, L, 48-hour exposure): 25%
- Percent Insecticide Mortality (larval blow fly; 50 × 1 mg/kg IR, 35 min, L, 24-hour exposure): 0%
- Percent Insecticide Mortality (larval blow fly; 50 × 1 mg/kg IR, 35 min, L, 48-hour exposure): 0%
- Percent Insecticide Mortality (larval blow fly; 50 × 1 mg/kg IR, 5 hr, L, 24-hour exposure): 40%
- Percent Insecticide Mortality (larval blow fly; 50 × 1 mg/kg IR, 5 hr, L, 48-hour exposure): 75%
- Percent Insecticide Mortality (larval blow fly; 50 × 1 mg/kg IR, Day 0, L, 24-hour exposure, 0 min): 0%
- Percent Insecticide Mortality (larval blow fly; 50 × 1 mg/kg IR, Day 0, L, 48-hour exposure): 0%
- Percent Insecticide Mortality (larval blow fly; 50 × 1 mg/kg IR, Day 1, L, 24-hour exposure): 90%
- Percent Insecticide Mortality (larval blow fly; 50 × 1 mg/kg IR, Day 1, L, 48-hour exposure): 100%
- Percent Insecticide Mortality (larval blow fly; 50 × 1 mg/kg IR, Day 2, L, 24-hour exposure, 2880 min): 90%
- Percent Insecticide Mortality (larval blow fly; 50 × 1 mg/kg IR, Day 2, L, 48-hour exposure): 100%
- Percent Insecticide Mortality (larval blow fly; 50 × 1 mg/kg IR, Day 3, L, 24-hour exposure, 4320 min): 80%
- Percent Insecticide Mortality (larval blow fly; 50 × 1 mg/kg IR, Day 3, L, 48-hour exposure): 100%
- Percent Insecticide Mortality (larval blow fly; 50 × 1 mg/kg IR, Day 4, L, 24-hour exposure, 5760 min): 40%
- Percent Insecticide Mortality (larval blow fly; 50 × 1 mg/kg IR, Day 4, L, 48-hour exposure): 40%
- Percent Insecticide Mortality (larval blow fly; 50 × 1 mg/kg IR, Day 5, L, 24-hour exposure, 7200 min): 20%
- Percent Insecticide Mortality (larval blow fly; 50 × 1 mg/kg IR, Day 5, L, 48-hour exposure): 25%
- killing at 100 ppm (Haemonchus contortus): 30%
